# Key:
# Assay type in all cases: cell-based, human
# HeLa cells = assay: MTT anti-proliferation assay, HeLa; conditions: 24 h, average of three determinations
# Description: The 22 synthesized resveratrol compounds were evaluated for anti-proliferative activities against three human cancer cell lines, including HepG2, A549 and HeLa cells, using 3-[4,5-dimethylthiazol-2-yl]-2,5 diphenyl tetrazolium bromide (MTT) assays. Paclitaxel, a well-known tubulin inhibitor, was used as a positive control.
# (§1) The anti-proliferative and cytotoxicity activity was determined using MTT assay. Human cervical carcinoma HeLa cells, human hepatocellular carcinoma HepG2 cells, human lung carcinoma A549 cells were representative in the anti-proliferation assay, which were obtained from the Shanghai Institute of Cell Biology (Shanghai, China). Normal African green monkey kidney Vero cells were a gift from Dr Xiumiao He at Guangxi University for Nationalities. Normal human hepatocytes LO2 cells were a gift from Dr Xing Lin at Guangxi Medical University. The HepG2, Hela, LO2 and Vero cells were cultured in Dulbecco's modified Eagle's medium (DMEM, Gibco) and the A549 cells were cultured in RPMI1640 (Gibco), both media were supplemented with 10% fetal calf serum and antibiotics (100 IU ml^−1 penicillin, 100 IU ml^−1 streptomycin; Amresco).
# After 24 h, cell morphology was observed using a light microscope, and then 20 µl of MTT solution (5 mg ml^−1) was added to the well and incubated for 4 h, then cell survival was determined by measuring the optical density (OD) absorbance at a wavelength of 570 nm using an ELISA microplate reader. […] Cisplatin and paclitaxel were used as positive control drugs.
# [1] = MTT cytotoxicity test, LO2; conditions: human, LO2 cells (normal human hepatocytes), average of three determinations
# Description: Vero cells are non-tumorigenic cell lines and are important raw materials as the research and production of biological products. Vero cells show low tumorigenicity and had been approved for use in the production of human virus vaccines. Thus, Vero cells were chosen as a control for cytotoxicity. All compounds were evaluated for their cell toxicity against Vero and normal human hepatocytes cells line (LO2) using MTT assays.
# as §1
# (§2) Cells were seeded in 96-well microtiter plates at a density of 1 × 10^4 cells well^−1 and incubated with different concentrations of compound (6.25, 12.50, 25.00, 50.00 to 100.00 µM), cisplatin and paclitaxel in RPMI-1640 or DMEM at 37°C with 5% CO2. After 24 h, cell morphology was observed using a light microscope, and then 20 µl of MTT solution (5 mg ml^−1) was added to the well and incubated for 4 h, then cell survival was determined by measuring the optical density (OD) absorbance at a wavelength of 570 nm using an ELISA microplate reader. The inhibition rate (IR) following each compound treatment was determined by the following equation: IR (%) = (1 − ODexp/ODcon) × 100%, where ODexp and ODcon are the OD of the treated and untreated cells, respectively. Cisplatin and paclitaxel were used as positive control drugs.
# HepG2 cells [2] = assay: Morphologic observation by light microscope; conditions: HepG2, 15 and 45 µM, 24 h
# Description: Morphological observations can directly reflect the effects of drugs on cells. HepG2 cells were cultured with increasing concentrations of compound r (0, 5, 15 and 45 µM) for 24 h and observed using a light microscope. The cell morphology was clearly altered with the increase in drug concentration (figure 2).
# Figure 2. Effect of compound r on the microscopic examination of HepG2 cells. Morphology of HepG2 treated with compound r (0, 5, 15 and 45 µM) and cisplatin (20 µM) for 24 h. Light microscopy photographs, with 40× objective.
# as §2
# β-tubulin in HepG2 cells = assay: Immunofluorescence microscopy assay of β-tubulin; conditions: 24 h
# Description: Resveratrol was previously reported to hamper microtubule function. To examine whether the anti-proliferative activity of compound r, a resveratrol derivative, was related to an interaction with tubulin, we examined β-tubulin in HepG2 cells treated with compound r and by immunofluorescence assay. Compound r ranging from 5 to 45 µM inhibited β-tubulin for 24 h (figure 3). […] In addition, after incubation with compound r (5, 15 and 45 µM), many cells became multinucleated. These phenomena were consistent with those observed with other microtubule-targeted drugs.
# Figure 3. Compound r promoted microtubule depolymerization in HepG2 cells. The HepG2 cells were treated with 0, 5, 15 or 45 µM compound r for 24 h, microtubule networks and nuclei were observed by immunofluorescence microscopy assay.
# HepG2 cells were cultured in DMEM supplemented with 10% fetal bovine serum on coverslips in 6-well plates and allowed to adhere for at least 12 h. Cells were then incubated in the presence or absence of compound r (0, 5, 15, 45 µM) for 24 h. Control cells were incubated with vehicle alone. […] Cell nuclei were stained with 4,6-diamidino-2-phenylindole (DAPI) and then images were obtained with a fluorescence microscope equipped with a motorized image capture system. […]
# HepG2 cells [3] = assay: Cell cycle assay by flow cytometry; conditions: 24 h, mean ± s.d.
# Description: To evaluate the effects of compound r on cell cycle progression of HepG2, cells were treated with compound r at different concentrations (0, 5, 15 and 45 µM) for 24 h and then examined by flow cytometry. The accumulation of cells in S phase increased with increasing concentration of compound r. Approximately 18.36 ± 1.93%, 19.39 ± 2.06%, 29.9 ± 0.87% and 34.24 ± 1.00% of cells were arrested in S phase in response to 0, 5, 15 and 45 µM compound r, respectively. In comparison, 39.56 ± 0.97% cells were arrested in S phase after treatment with 20 µM cisplatin for 24 h.
# Figure 5. Cells treated with 0, 5, 15 and 45 µM compound r for 24 h were collected and analysed by flow cytometry. Images were representative of three independent experiments. Values represented the mean ± s.d.; versus blank, *p < 0.01, **p < 0.001; versus control ^#p < 0.01, ^##p < 0.001.
# Cells were treated with compound r (0, 5, 15, 45 µM) or 20 µM of cisplatin as the control for 24 h. Cells were collected by centrifugation (1000 rpm, 5 min), washed with PBS and fixed with 70% ice-cold ethanol overnight at 4°C. The cell cycle was examined on a flow cytometer using a cell cycle analysis kit (Beyotime Biotechnologyin, China) in accordance with the manufacturer's instructions.
compound,measurement,setting,value
"COc1ccc(C(=Cc2cc(C(F)(F)F)ccc2Cl)C(=O)O)cc1 [compound r, 3-(2-chloro-5-(trifluoromethyl)phenyl)-2-(4-methoxyphenyl) acrylic acid]",IC50,HeLa cells,4.8 ± 0.8 µM
same,IC50,"HeLa cells; Homo sapiens, HeLa",4.79 µM
same,CC50 at 24 h,[1],> 100 µM
same,cell morphology,HepG2 cells [2],"shrinkage, rounding and detachment from the plate surface"
same,microtubule network / cytoskeleton appearance,"β-tubulin in HepG2 cells; HepG2, 45 µM",microtubules appeared depolymerized
same,microtubule network / cytoskeleton appearance,"β-tubulin in HepG2 cells; HepG2, 5 and 15 µM",highly abnormal cytoskeleton
same,cells arrested in S phase,"HepG2 cells [3]; HepG2, 5 µM",~19.39 ± 2.06%
same,cells arrested in S phase,"HepG2 cells [3]; HepG2, 15 µM",~29.9 ± 0.87%
same,cells arrested in S phase,"HepG2 cells [3]; HepG2, 45 µM",~34.24 ± 1.00%

# — publication PMC6774960, “Design, synthesis and biological evaluation of a series of new resveratrol analogues as potential anti-cancer agents” (Royal Society Open Science, 2019)
